“Also recorded” adds a separate entry of the source.
Assays:
[1] = test system: U2OS cells; experiment: Cell growth and viability after drug removal; format: cell-based, human; settings: 3 mM 6-thio-dG for 3 days followed by 10-days post-drug removal (FIG. 10C)
[2] = test system: SaOS2; experiment: Cell growth assay (viable cell count, trypan blue exclusion); format: cell-based, human
Protocol: (§1) Cell growth and sphere formation assay. After dissociating primary neurospheres by TrypLE express (Gibco), single cells were seeded in respective growth media in 6-well plates and were incubated for one week at varying concentrations (0.5 to 10 μM) of 6-thio-dG or DMSO. Fresh culture media were added every three days. Viable cell numbers were determined by trypan blue exclusion method. For sphere formation assay, MB004 single cells were seeded in limited dilution (10 cells/well in 96-well plate) and treated with DMSO or 6-thio-dG. Sphere formation was monitored by microscopy.

[3] = test system: MB004; experiment: as above; format: cell-based, human
Protocol: as §1

[4] = test system: D-458; experiment: as above; format: cell-based, human
Protocol: as §1

[5] = test system: D-425; experiment: as above; format: cell-based, human
Protocol: as §1

[6] = test system: HFF; experiment: as above; format: cell-based, human
Protocol: as §1

[7] = test system: HFF+hTERT cells; experiment: Cell cycle analysis (PI flow cytometry); format: cell-based, human
Protocol: (§2) Cell cycle analysis. Following treatment with 6-thio-dG or DMSO, cells were collected in PBS, fixed with ice-cold 70% ethanol and were kept in −20° C. for at least an hour. Cells were then washed and stained with propidium iodide (PI) solution containing 25 μg/mL PI (Sigma), and 100 μg/mL Ribonuclease-A (Sigma) for 30 minutes in the dark. Flow cytometry was performed on BD FACS Canto II and cells were analyzed using FlowJo v.10 (FlowJo, USA) software.

[8] = test system: HFF cells; experiment: Cell cycle analysis (PI flow cytometry); format: cell-based, human; settings: 3 μM, three days
Protocol: as §2

[9] = test system: CCHMC-DIPG-1 orthotopic tumors; experiment: Orthotopic patient-derived DIPG xenograft (CCHMC-DIPG-1 in pons); format: in vivo, mouse
Protocol: (§3) Mouse subcutaneous and orthotopic xenograft. Athymic Ncr-nu/nu female mice (6-7 weeks old) were subcutaneously injected with 10,000 MB004 cells. Mice were weighed and distributed in two groups (control and 6-thio-dG). After tumor-establishment (day 23-24 post-implantation) with an average volume of 100-200 mm3, mice were injected intraperitoneally (i.p) every 2 days with 6-thio-dG (2.5 mg/kg) or DMSO-PBS (vehicle) for 3-4 weeks until euthanization. Tumors were measured by slide calipers taking two longest tumor-diameters (length and width) perpendicular to each other and volumes were calculated by using the formula: (π/6)×d3, where d=mean diameter. For orthotopic xenograft, CCHMC-DIPG-1 luciferase-positive cells (10,000) were injected in the brain of NRG (NOD.Cg-Rag1tm1Mom Il2rgtm1Wjl/SzJ) mice. Briefly, mice were injected stereotactically with 2 μl medium containing 10,000 luciferase-positive cells. The coordinates for injection were 0.8-1 mm posterior to lambda suture and 3.5 mm deep, corresponding to the pons location in the brain. Tumors were visualized by luminescence using IVIS Spectrum CT in vivo imaging system (PerkinElmer). All animal procedures were approved by the Institutional Animal Care and Use Committee (IACUC) (protocol #IACUC2015-0066, CCHMC).
(§4) Immunohistochemistry. Formalin-fixed paraffin-embedded (FFPE) sections were deparaffinized in xylene followed by rehydration through a graded ethanol concentration series. Heat-induced antigen retrieval was performed by steaming slides for 20 minutes in 10 mM Citrate buffer (pH 6.0). […] Slides were washed with TBST (×3) and were treated with biotinylated anti-rabbit secondary antibody (1:500) and signal-amplified using ABC Kit (Vector Laboratories). Signal was visualized with DAB (Vector Laboratories) and counterstained with Harris Hematoxylin (Sigma). H & E staining was performed using hematoxylin-1 and eosin-Y (Thermo Scientific). Tissues were mounted with Permount (Fisher Scientific) and imaged by Nikon eclipse 80i microscope.
Tissue TIF assay. […]

[10] = test system: MB004 tumors
Protocol: as §3, §4
Tissue TIF assay. Tissue samples were pre-fixed with 4% PFA and were cryo-protected in 25% sucrose/PBS solution, then embedded in OCT freezing molds with Neg-50 (VWR) in acetone and dry ice followed by cryo-sectioning. Heat-induced antigen retrieval and Telomere-FISH was performed as described above. The samples were incubated in blocking solution (5% donkey serum, 0.3% Triton X-100 in TBS) for 30 minutes and treated with anti-53BP1 (rabbit 1:500; Novus Biologicals) for 1 hour at room temperature. After washing in TBST (×3), the samples were incubated with secondary antibody Alexa-Fluor 488-conjugated donkey anti-rabbit (1:400; Jackson ImmunoResearch), and washed in TBS (×3). The samples were embedded in mounting media with DAPI (Vector Laboratories H1200). Images were captured with 60× oil objective on Nikon Eclipse Ti confocal microscope.

[11] = 2.5 mg/kg i.p. every 2 days for 3-4 weeks
[12] = 2.5 mg/kg i.p. every 2 days, vs untreated group

## Nc1nc2c(ncn2[C@H]2C[C@H](O)[C@@H](CO)O2)c(=S)[nH]1 [6-thio-dG, 6-thio-2′-deoxyguanosine]
[1]
  cell death / viability: predominantly did not die
[2]; Homo sapiens, SAOS-2, 168 h, 6-thio-dG treatment for 7 days, SaOS2 (telomerase-negative, ALT-positive)
  IC50: 7.58 µM
[2]; up to 3 μM, one week
  cell growth: minor to no effect
[3]; 3 μM 2 days, then 3 days continuous or discontinuous treatment
  relative growth: robust growth inhibition
[3]; Homo sapiens, 168 h, 6-thio-dG treatment for 7 days, MB004
  IC50: 0.436 µM
[4]; 0.5-10 μM for one week, cells at recurrence
  cell growth: effectively inhibited cell growth
[4]; Homo sapiens, 168 h, 6-thio-dG treatment for 7 days, D-458 (recurrence)
  IC50: 1.45 µM
[5]; 0.5-10 μM for one week, cells at diagnosis
  cell growth: effectively inhibited cell growth
[5]; Homo sapiens, 168 h, 6-thio-dG treatment for 7 days, D-425 (primary)
  IC50: 1.38 µM
[6]; Homo sapiens, 168 h, 6-thio-dG treatment for 7 days, HFF (telomerase-negative)
  IC50: 7.91 µM
[6]; up to 3 μM, one week
  cell growth: minor to no effect
[7]; 3 μM 3 days, then drug removed
  cell cycle profile after drug removal: partially reverted to that of the vehicle control
[7]; 3 μM, three days
  cell cycle progression: caused G2/M arrest
[8]
  G2/M arrest effect: negligible
[9]; i.p., 7-8 days (4-5 doses in total), vs untreated tumors
  intratumoral TIFs and genomic DNA damage: increase in the number of cells with genomic DNA damage and TIFs
[9]; intraperitoneal injection
  effect on normal mouse brain: no obvious effect on normal brain tissue; also recorded: did not observe any adverse effects
  penetration to brain tumor site: reached the tumor in the pons; also recorded: crossed the blood-brain-barrier
[10]; 2.5 mg/kg i.p. every 2 days
  in-tumor cells with at least 1-3 TIFs: More than 21%
  population of cells with 4-6 TIFs per cell: detected only in treated tumors
[10]; [11]
  treated mice with fast tumor growth: Two out of six
  treated mice with reduced or delayed tumor growth: Four out of six
[10]; 2.5 mg/kg i.p. every 2 days, vs control group
  in-tumor apoptosis (cleaved caspase-3 IHC): significant increase in apoptosis
[10]; [12]
  apoptotic bodies (H & E): increase in apoptotic bodies
  number of mitotic figures (H & E): significant decrease
[10]; upon reaching tumor volume of 1500 mm^3, vs vehicle group
  probability of animal survival: significantly higher

— patent US12594293B2, “Use of 6-thio-dG to treat therapy-resistant telomerasepositive pediatric brain tumors” (The Board of Regents of The University of Texas System, priority 2018, dated 2026)
